From PMC8880564, “Design, Synthesis, and Biological Evaluation of a Novel VEGFR-2 Inhibitor Based on a 1,2,5-Oxadiazole-2-Oxide Scaffold with MAPK Signaling Pathway Inhibition” (Pharmaceuticals, 2022)

What was measured:
[1] = test system: normal human skin fibroblast cells (HSF); assay: Selectivity towards cancer cells, normal cells by MTT; format: cell-based; details: at a concentration as high as 50 µM, 48 h
Procedure: Furthermore, the selectivity index (SI) of compound 12b towards the various cancer cell lines was evaluated by detecting the required concentration to kill 50% of normal human skin fibroblast cells (HSF).
According to the procedures of Bézivin et al. (with minor modifications), the selectivity of compound 12b against cancer cell lines was evaluated by seeding human skin fibroblast cells (HSF) at 5 × 10^4 cells/mL in a 96-well plate and incubating them overnight at 37 °C and 5% CO2. On the second day, serial dilution of the compound 12b was added. After 48 h of incubation, the viability of HSF cells was determined by MTT assay as mentioned above and the selectivity index (SI) was calculated according to Equation (1):
Equation (1) Calculation of selectivity index. (1) SI=IC50 normal cells/IC50 cancer cell

HepG2 cells = assay: Cell-cycle analysis by flow cytometry (PI); format: cell-based, human; details: HepG2, 48 h; 5.6 in DMSO-treated cells
Procedure: The mechanism of action of 12b was investigated by evaluating its effectiveness in modulating the cell cycle and induction of apoptosis.
According to Gray et al., HepG2 cells were seeded in a 6-well plate (2 mL/well) and incubated at 37 °C and 5% CO2 for 12 h. Cell synchronization at the G1 phase was performed by incubating the cells with serum-free medium for 12 h, then cells were treated with 5.5 or 11 μM of 12b. After 48 h of incubation, cells were washed twice with ice-cold 1× PBS and subjected to trypsinization. The detached cells were centrifuged at 500× g for 5 min at 4 °C. Then, the cell pellet was resuspended in ice-cold 1× PBS and fixed with absolute ethanol. After 2 h of incubation at −20 °C, the fixed cells were washed with ice-cold 1× PBS. The cell pellet was resuspended in propidium (PI)/RNase (BD Biosciences, BDB550825, Franklin Lakes, NJ, USA) and incubated for 30 min at room temperature (RT) in the dark, then the DNA content in each phase was measured by flow cytometry using BD FACS Calibur.

BCL-2 = assay: Quantitative RT-PCR for gene expression in HepG2 cells; format: cell-based, human; details: HepG2, 12 h
Excerpt: (§1) Epithelial cells express specific genes involved in maintaining apical–basal polarity and adherence, such as epithelial E-cadherin. The epithelial cells migrate to distant locations by over-expressing mesenchymal genes, including neuronal N-cadherin and vimentin [58]. Cancer aggressiveness has been positively correlated with the over-expression of N-cadherin. Therefore, in this study, the partial mechanism of activity of 12b was investigated, by quantitative RT-PCR, with respect to E-cadherin and N-cadherin. […] Additionally, the ability of 12b was confirmed by detecting the change in expression of both pro-apoptotic (Bax) and anti-apoptotic (BCL-2) genes. Compound 12b-treated HepG2 cells (for 12 h) expressed a low level of BCL-2 and over-expressed Bax (Figure 11A).
(§2) HepG2 cells were treated either with DMSO, 5.5 or 11 µM of 12b for 12 h, and then the total RNA was extracted by TRIzol™ Reagent (Invitrogen, Cat. No. 15596018). The RNA concentration and purity were evaluated using a Thermo Scientific™ NanoDrop™ One Microvolume UV-Vis Spectrophotometer. Four µg RNA was reverse transcribed to cDNA using the RevertAid First Strand cDNA Synthesis kit. The level of N-cadherin, E-cadherin, BCL-2, Bax, and GAPDH was detected using the SensiFAST™ SYBR® High-ROX Kit with the StepOne™ Real-Time PCR System (Applied Biosystems™). The expression level was firstly normalized to the level of GAPDH, then calculated as 2^−(ΔΔCt), where ΔCt 12b = (Ct […] Ct GAPDH); ΔCt DMSO = (Ct DMSO ™ Ct GAPDH); ΔΔCt = (ΔCt 12b ™ ΔCt DMSO). Ct is the cycle threshold.

Bax = assay: as above; format: cell-based, human; details: HepG2, 12 h
Excerpt: as §1, §2

E-cadherin = assay: as above; format: cell-based, human; details: HepG2, 5.5 or 11 µM, 12 h
Excerpt: as §1, §2

N-cadherin = assay: as above; format: cell-based, human; details: HepG2, 5.5 or 11 µM, 12 h
Excerpt: as §1, §2

MMP-9 = assay: Western blot analysis in HepG2 cells; format: cell-based, human; details: HepG2, 48 h
Procedure: (§3) The mitogen-activated protein kinase (MAPK) pathway is considered to be a key player in the gene expression of survival, proliferative, and anti-apoptotic proteins. Aberrant dysregulation in the MAPK pathway activity has been linked to the overall poor prognosis in various cancers. […] Additionally, compound 12b was further tested against p38, MKK3, and JNK using ELISA assay protocols at a concentration of 11 µM. […] The overexpression of JNK might have contributed to the NO released from 12b and reactive oxygen species (ROS). In summary, the novel anticancer lead compound 12b is worthy of further investigation and activity improvement.
(§4) The cells were seeded (2.5 × 10^5 cells/mL) and treated as described above. After 48 h of incubation with compound 12b, cells were lysed by RIPA buffer containing 1x protease and phosphatase inhibitor cocktail (Thermo Scientific™, Waltham, MA, USA). The supernatant was collected after centrifugation at 4 °C and the Pierce BCA Protein Assay Kit (Thermo Scientific™, 23225, Waltham, MA, USA) was used for protein concentration detection. Proteins were then separated using SDS-PAGE at 100 V for 45 min. After that, the proteins were transferred to a nitrocellulose membrane. The membrane was subjected to a suitable primary antibody overnight. Then, an appropriate HRP-conjugated secondary antibody was used. GAPDH was used as a loading control. The membrane was developed using WesternBright® ECL (Advansta Inc., K-12045-D20, San Jose, CA, USA), and the signal was detected using ChemiDoc XRS^+ (1708265, Bio-Rad Laboratories, Hercules, CA, USA).

p21 = assay: Western blot analysis in HepG2 cells; format: cell-based, human; details: HepG2, 48 h
Procedure: as §3, §4

p27 = assay: Western blot analysis in HepG2 cells; format: cell-based, human; details: HepG2, 48 h
Procedure: as §3, §4

p53 = assay: Western blot analysis in HepG2 cells; format: cell-based, human; details: HepG2, 48 h
Procedure: as §3, §4

pERK = assay: Western blot analysis in HepG2 cells; format: cell-based, human; details: HepG2, 48 h
Procedure: as §3, §4

total ERK = assay: Western blot analysis in HepG2 cells; format: cell-based, human; details: HepG2, 48 h
Procedure: as §3, §4

[O-][n+]1onc(-c2ccccc2)c1CNc1ccc(Nc2nc(C(F)(F)F)nc3c2cnn3-c2ccc(Br)cc2)cc1 [12b, 3-(((4-((1-(4-bromophenyl)-6-(trifluoromethyl)-1H-pyrazolo[3,4-d]pyrimidin-4-yl)amino)phenyl)amino)methyl)-4-phenyl-1,2,5-oxadiazole 2-oxide]
morphological changes in HSF cells [1]: did not cause any morphological changes | cell-cycle arrest at subG1 (HepG2 cells): 24 | expression of BCL-2 (BCL-2): low level | expression of Bax (Bax): over-expressed | expression of epithelial E-cadherin (E-cadherin): increased expression | expression of neuronal N-cadherin (N-cadherin): lower expression | expression of metalloproteinase MMP-9 (MMP-9): downregulation | expression of p21 (p21): over-expression | expression of p27 (p27): over-expression | expression of p53 (p53): slight increase in the expression | level of phosphorylated ERK (pERK): decreased the level | level of total ERK (total ERK): decreased the level
